Assay results reported in US10118926B2, “Tricyclic quinoline and quinoxaline derivatives” (AbbVie Deutschland GmbH & Co. KG, priority 2012, dated 2018).
Counter-ions that a name gives are not always drawn.

Molecular target: T1, 5-HT2C receptor (Homo sapiens, UniProt P28335)
T1 construct: β-galactosidase enzyme-complementation fragment (ProLink-type donor); host or cells: U2OS
Test: Functional activity: beta-arrestin2 recruitment to the 5-HT2C receptor in U2OS_HTR2C_β-Arrestin cells (DiscoverX)
Type: cell-based
Details: for % efficacy / Emax: relative efficacy: response as percentage of response to 10 μM 5-HT or maximal effect induced by 5-HT (defined as 100%); for EC50: U2OS_HTR2C_β-Arrestin cells, 1.5 h incubation, chemiluminescent β-galactosidase complementation readout, read-out: Potency (EC50) in functional assay
Description: The functional activity of compounds of formula I was assayed by incubation with U2OS_HTR2C_β-Arrestin cells (DiscoverX, 93-0289C3) to induce beta-arrestin2 recruitment to the 5-HT2C receptor. The agonist-induced recruitment and proximity of the receptor and beta-arrestin2 leads to complementation and formation of active β-galactosidase. The enzyme complementation results in enzyme activity, which is measured following the termination of the agonist incubation using DiscoveRx's detection reagent, which contains a chemiluminescent substrate which produces a high intensity signal. Cells were plated and a medium-change to a 1% serum containing medium was performed 24 h later. The next day, test compounds were added and incubated for 1.5 h before addition of detection reagent.
The response produced was measured and compared with the response produced by 10 [mu]M 5-HT or the maximal effect induced by 5-HT (defined as 100%) to which it was expressed as a percentage response (relative efficacy). Dose response curves were constructed using Graphpad Prism (Graph Software Inc.) or using in house adapted software using a 4 parameter dose response model with variable slope (fit=(Bottom+(Top−Bottom)/(1+10^((Log EC50−x)*HillSlope))res=(y−fit)). Results are compiled in the table below.

T1 sequence (P28335 33-458): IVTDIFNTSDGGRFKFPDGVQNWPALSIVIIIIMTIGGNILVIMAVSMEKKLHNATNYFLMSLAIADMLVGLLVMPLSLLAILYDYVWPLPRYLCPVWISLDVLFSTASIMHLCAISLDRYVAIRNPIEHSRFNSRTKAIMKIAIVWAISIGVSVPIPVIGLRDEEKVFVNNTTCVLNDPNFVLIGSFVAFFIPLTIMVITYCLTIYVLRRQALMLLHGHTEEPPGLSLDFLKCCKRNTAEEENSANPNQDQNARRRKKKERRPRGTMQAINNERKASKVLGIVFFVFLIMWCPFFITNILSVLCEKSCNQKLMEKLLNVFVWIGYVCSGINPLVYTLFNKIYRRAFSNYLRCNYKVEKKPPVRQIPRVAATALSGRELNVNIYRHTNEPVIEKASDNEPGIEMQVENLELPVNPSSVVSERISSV
T1 sequence (P32121 whole entry partner, the tested form may be a part): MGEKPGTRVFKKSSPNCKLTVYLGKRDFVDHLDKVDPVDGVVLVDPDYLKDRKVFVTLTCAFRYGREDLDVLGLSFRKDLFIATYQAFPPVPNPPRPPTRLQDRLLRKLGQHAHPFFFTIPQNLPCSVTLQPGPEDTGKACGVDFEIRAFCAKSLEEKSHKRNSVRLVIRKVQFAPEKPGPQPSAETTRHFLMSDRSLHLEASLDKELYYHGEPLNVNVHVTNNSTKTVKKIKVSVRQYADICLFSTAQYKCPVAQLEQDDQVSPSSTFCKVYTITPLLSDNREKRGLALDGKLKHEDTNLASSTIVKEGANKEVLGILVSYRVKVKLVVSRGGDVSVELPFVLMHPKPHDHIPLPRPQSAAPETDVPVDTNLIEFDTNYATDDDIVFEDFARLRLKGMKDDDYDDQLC

Row | SMILES | % efficacy [%] | EC50 [nM] | Emax [%]
1 | CC1(C(F)(F)F)CCN2CCNCc3cccc1c32 (single isomer, unassigned) [Example 8, 8-Methyl-8-(trifluoromethyl)-2,3,4,6,7,8-hexahydro-1H-[1,4]diazepino [6,7,1-ij]quinoline] | 40 | – | –
2 | CC1CN2CCNCc3cccc(c32)C1(C)C (single isomer, unassigned) [Example 27, Enantiomer of 7,8,8-trimethyl-1,2,3,4,7,8-hexahydro-6H-[1,4]diazepino[6,7,1-ij]quinoline]] | 87 | – | –
3 | CC1CN2CCNCc3cccc(c32)C1(C)C (single isomer, unassigned) [Example 28, Enantiomer of 7,8,8-trimethyl-1,2,3,4,7,8-hexahydro-6H-[1,4]diazepino[6,7,1-ij]quinoline]] | 55 | – | –
4 | CCC1(C)CCN2CCNCc3cccc1c32.O=C(O)C(F)(F)F (single isomer, unassigned) [Example 54, One enantiomer of 8-ethyl-8-methyl-2,3,4,6,7,8-hexahydro-1H-[1,4]diazepino[6,7,1-ij]-quinoline, trifluoroacetic acid] | 24 | 200 to 1000 | –
5 | CCC1(C)CCN2CCNCc3cccc1c32.O=C(O)C(F)(F)F (single isomer, unassigned) [Example 55, Other enantiomer of 8-ethyl-8-methyl-2,3,4,6,7,8-hexahydro-1H-[1,4]diazepino[6,7,1-ij]quinoline, trifluoroacetic acid] | 26 | 200 to 1000 | –
6 | c1cc2c3c(c1)N1CCC[C@@H]1CN3CCNC2 [Example 16, (R)-5,6,7,9,9a,10,11,12-Octahydro-4H-[1,4]diazepino[1,7,6-de]pyrrolo[1,2-a]quinoxaline (2,2,2-trifluoroacetate)] | – | – | 55
7 | c1cc2c3c(c1)N1CCC[C@H]1CN3CCNC2 [Example 17, (S)-5,6,7,9,9a,10,11,12-Octahydro-4H-[1,4]diazepino[1,7,6-de]pyrrolo[1,2-a]quinoxaline (2,2,2-trifluoroacetate)] | – | – | 84
8 | CC1(C)CCN2CCNCc3cc(Cl)cc1c32 [Example 19, 10-Chloro-8,8-dimethyl-2,3,4,6,7,8-hexahydro-1H-[1,4]diazepino [6,7,1-ij]quinoline (2,2,2-trifluoroacetate)] | – | – | 25
9 | CC1(C)CCN2CCNCc3ccc(F)c1c32 [Example 22, 9-Fluoro-8,8-dimethyl-2,3,4,6,7,8-hexahydro-1H-[1,4]diazepino[6,7,1-ij]quinoline] | – | – | 69
10 | c1cc2c3c(c1)C1(CCC1)CCN3CCNC2 [Example 25, 1′,2′,3′,4′,6′,7′-Hexahydrospiro[cyclobutane-1,8′-[1,4]diazepino [6,7,1-ij]quinoline], hydrochloride] | – | – | 90
11 | Fc1ccc2c3c1C1(CCC1)CCN3CCNC2 [Example 26, 9′-Fluoro-1′,2′,3′,4′,6′,7′-hexahydrospiro[cyclobutane-1,8′-[1,4]diazepino[6,7,1-ij]quinoline], hydrochloride] | – | – | 107
12 | c1cc2c3c(c1)N(C1CCC1)CCN3CCNC2 [Example 33, 1-Cyclobutyl-2,3,5,6,7,8-hexahydro-1H-[1,4]diazepino[1,7,6-de]quinoxaline 2,2,2-trifluoroacetate] | – | 200 to 1000 | 78
13 | c1cc2c3c(c1)N(C1COC1)CCN3CCNC2 [Example 35, 1-(Oxetan-3-yl)-2,3,5,6,7,8-hexahydro-1H-[1,4]diazepino[1,7,6-de]quinoxaline 2,2,2-trifluoroacetate] | – | 20 to 200 | 112
14 | CC1CNCc2ccc(F)c3c2N1CC1CCCN31 (stereo not drawn) [Example 46, 1-Fluoro-7-methyl-5,6,7,9,9^a,10,11,12-octahydro-4H-[1,4]diazepino[1,7,6-de]pyrrolo[1,2-a]quinoxaline] | – | 200 to 1000 | 71
15 | CC1CNCc2cccc3c2N1CCC31CC1 (stereo not drawn) [Example 48, 4-Methyl-1,2,3,4,6,7-hexahydrospiro[[1,4]diazepino[6,7,1-ij]quinoline-8,1′-cyclopropane]] | – | 20 to 200 | 105
16 | CC1(C)CCN2CCNCc3c(F)ccc1c32 [Example 49, 11-Fluoro-8,8-Dimethyl-2,3,4,6,7,8-hexahydro-1H-[1,4]diazepino[6,7,1-ij]quinoline] | – | 200 to 1000 | 78
17 | CC1CNCc2cccc3c2N1CCC3(C)C (stereo not drawn) [Example 51, 4,8,8-Trimethyl-2,3,4,6,7,8-hexahydro-1H-[1,4]diazepino[6,7,1-ij]quinoline 2,2,2-trifluoroacetate] | – | 20 to 200 | 102
18 | CC1CNCc2cccc3c2N1CCC31CCC1 (stereo not drawn) [Example 56, 4-Methyl-1,2,3,4,6,7-hexahydrospiro[[1,4]diazepino[6,7,1-ij]quinoline-8,1′-cyclobutane]] | – | < 20 | 124
19 | Cc1ccc2c3c1CNCCN3CCC21CCC1 [Example 66, 11-Methyl-1,2,3,4,6,7-hexahydrospiro[[1,4]diazepino[6,7,1-ij]quinoline-8,1′-cyclobutane], 2,2,2-trifluoroacetic acid] | – | 200 to 1000 | 53
20 | Cc1ccc2c3c1C1(CCC1)CCN3CCNC2 [Example 67, 9-Methyl-1,2,3,4,6,7-hexahydrospiro[[1,4]diazepino[6,7,1-ij]quinoline-8,1′-cyclobutane], trifluoroacetic acid] | – | < 20 | 116

Results, then the molecule that gave them:

Row | % efficacy [%] | EC50 [nM] | Emax [%] | SMILES
21 | 61 | – | – | CC1(C(F)(F)F)CCN2CCNCc3cccc1c32 (single isomer, unassigned) [Example 9, 8-Methyl-8-(trifluoromethyl)-2,3,4,6,7,8-hexahydro-1H-[1,4]diazepino [6,7,1-ij]quinoline]
22 | – | – | 71 | CC1(C)CCN2CCNCc3cccc1c32 [Example 1, 8,8-Dimethyl-2,3,4,6,7,8-hexahydro-1H-[1,4]diazepino[6,7,1-ij]quinoline]
23 | – | – | 63 | c1cc2c3c(c1)C1(CCCC1)CCN3CCNC2 [Example 6, 1,2,3,4,6,7-Hexahydrospiro[[1,4]diazepino [6,7,1-ij]quinoline-8,1′-cyclopentane]]
24 | – | 200 to 1000 | 31 | c1cc2c3c(c1)N(CC1CC1)CCN3CCNC2 [Example 36, 1-(Cyclopropylmethyl)-2,3,5,6,7,8-hexahydro-1H-[1,4]diazepino[1,7,6-de]quinoxaline]
25 | – | 200 to 1000 | 21 | c1cc2c3c(c1)N(CC1CCCC1)CCN3CCNC2 [Example 37, 1-(Cyclopentylmethyl)-2,3,5,6,7,8-hexahydro-1H-[1,4]diazepino[1,7,6-de]quinoxaline]
26 | – | 20 to 200 | 131 | c1cc2c3c(c1)N(C1CC1)CCN3CCNC2 [Example 40, 1-Cyclopropyl-2,3,5,6,7,8-hexahydro-1H-[1,4]diazepino[1,7,6-de]quinoxaline]
27 | – | 200 to 1000 | 75 | c1cc2c3c(c1)N(C1CCCC1)CCN3CCNC2 [Example 41, 1-Cyclopentyl-2,3,5,6,7,8-hexahydro-1H-[1,4]diazepino[1,7,6-de]quinoxaline]
28 | – | < 20 | 163 | CC1CNCc2cccc3c2N1CCN3C1CC1 (stereo not drawn) [Example 42, 1-Cyclopropyl-5-methyl-2,3,5,6,7,8-hexahydro-1H-[1,4]diazepino[1,7,6-de]quinoxaline]
29 | – | 200 to 1000 | 59 | CC1CNCc2cccc3c2N1CCN3C1CCCC1 (stereo not drawn) [Example 43, 1-Cyclopentyl-5-methyl-2,3,5,6,7,8-hexahydro-1H-[1,4]diazepino[1,7,6-de]quinoxaline]
30 | – | 20 to 200 | 55 | c1cc2c3c(c1)N1CCCCCC1CN3CCNC2 (stereo not drawn) [Example 44, 5,6,7,9,9a,10,11,12,13,14-decahydro-4H-azepino[1,2-a][1,4]diazepino[1,7,6-de]quinoxaline]
31 | – | 20 to 200 | 77 | CC1CNCc2cccc3c2N1CC1CCCN31 (stereo not drawn) [Example 45, 7-Methyl-5,6,7,9,9^a,10,11,12-octahydro-4H-[1,4]diazepino[1,7,6-de]pyrrolo[1,2-a]quinoxaline]
32 | – | 20 to 200 | 59 | c1cc2c3c(c1)C1(CCN3CCNC2)CC1 [Example 47, 1,2,3,4,6,7-Hexahydrospiro[[1,4]diazepino[6,7,1-ij]quinoline-8,1′-cyclopropane]]
33 | – | 200 to 1000 | 35 | Fc1ccc2c3c1N1CCCC1CN3CCNC2 (stereo not drawn) [Example 57, 1-Fluoro-5,6,7,9,9a,10,11,12-octahydro-4H-[1,4]diazepino[1,7,6-de]pyrrolo[1,2-a]quinoxaline, trifluoroacetic acid]
34 | – | 20 to 200 | 51 | Cc1ccc2c3c1N1CCCC1CN3CCNC2 (stereo not drawn) [Example 59, 1-Methyl-5,6,7,9,9a,10,11,12-octahydro-4H-[1,4]diazepino[1,7,6-de]pyrrolo[1,2-a]quinoxaline, trifluoroacetic acid]
35 | – | 20 to 200 | 76 | c1cc2c3c(c1)N1CC4CC4C1CN3CCNC2 (stereo not drawn) [Example 68, 4,5,6,7,9,9a,9b,10,10a,11-Decahydrocyclopropa[3,4]pyrrolo[1,2-a][1,4]diazepino[1,7,6-de]quinoxaline]
36 | – | 200 to 1000 | 54 | CCN1CCN2CCNCc3cccc1c32 [Example 69, 1-Ethyl-2,3,5,6,7,8-hexahydro-1H-[1,4]diazepino[1,7,6-de]quinoxaline]
